ChEMBL document CHEMBL6071134, “Novel bibenzyl compound Ae exhibits anti-agiogenic activity in HUVECs in vitro and zebrafish in vivo” (Bioorg Med Chem, 2024)
The source made the active and inactive calls. No cut-off for these calls is given here.

Columns and labels:
HUVEC [1] = test: Anti-angiogenesis activity in HUVEC cells assessed as appearance of incomplete tubule network structure at 0.25 to 2 uM incubated for 12 hrs by inverted microscopic analysis; assay type: functional, cell-based; conditions: Homo sapiens, dose 0.25-2 µM
HUVEC [2] = test: Inhibition of cell migration in HUVEC cells incubated for 12 hrs by crystal violet staining based wound healing assay; assay type: functional; conditions: Homo sapiens, dose 0.25-2 µM
Danio rerio [3] = species: Danio rerio; test: Anti-angiogenesis activity in zebrafish embryo assessed as downregulation of tek mRNA expression at 0.5 to 5 uM measured after 24 hrs by qRT-PCR analysis; assay type: functional, organism-based; conditions: dose 0.5-5 µM
Danio rerio [4] = species: Danio rerio; test: Anti-angiogenesis activity in zebrafish embryo assessed as effect on fgfr2 mRNA expression at 0.5 to 5 uM measured after 24 hrs by qRT-PCR analysis; assay type: functional, organism-based; conditions: dose 0.5-5 µM
Danio rerio [5] = species: Danio rerio; test: Antiangiogenic activity against transgenic zebrafish model assessed as inhibition of inter-segmental blood vessels of embryo measured after 72 hrs post fertilization by fluorescence microscopy based analysis; assay type: functional, organism-based; conditions: dose 0.625-2.5 µM
Danio rerio [6] = species: Danio rerio; test: Antiangiogenic activity against transgenic zebrafish model assessed as inhibition of inter-segmental blood vessels of embryo at 0.625 uM measured after 72 hrs post fertilization by fluorescence microscopy based analysis; assay type: functional, organism-based
Danio rerio [7] = species: Danio rerio; test: Anti-angiogenesis activity in zebrafish embryo assessed as effect on flt-1 mRNA expression at 0.5 to 5 uM measured after 24 hrs by qRT-PCR analysis; assay type: functional, organism-based; conditions: dose 0.5-5 µM
HUVEC [8] = test: Inhibition of cell invasion in HUVEC cells measured after 24 hrs by crystal violet staining based inverted fluorescence microscopy analysis; assay type: functional; conditions: Homo sapiens, dose 0.25-2 µM
HUVEC [9] = test: Inhibition of cell invasion in HUVEC cells assessed as reduction in number of invading cells at 2 uM measured after 24 hrs by crystal violet staining based inverted fluorescence microscopy analysis relative to control; assay type: functional; conditions: Homo sapiens
Danio rerio [10] = species: Danio rerio; test: Anti-angiogenesis activity in zebrafish embryo assessed as effect on fgf2 mRNA expression at 0.5 to 5 uM measured after 24 hrs by qRT-PCR analysis; assay type: functional, organism-based; conditions: dose 0.5-5 µM
HUVEC [11] = test: Anti-angiogenesis activity in HUVEC cells assessed as appearance of broken tubule network structure at 0.25 to 2 uM incubated for 12 hrs by inverted microscopic analysis; assay type: functional, cell-based; conditions: Homo sapiens, dose 0.25-2 µM
[12] = Toxicity in transgenic zebrafish at 2.5 uM measured after 72 hrs; parameters: species or system Danio rerio; conditions: in vivo
HUVEC [13] = test: Anti-angiogenesis activity in HUVEC cells assessed as appearance of few branches in tubule network structure at 0.25 to 2 uM incubated for 12 hrs by inverted microscopic analysis; assay type: functional, cell-based; conditions: Homo sapiens, dose 0.25-2 µM
HUVEC [14] = test: Inhibition of cell migration in HUVEC cells at 2 uM by crystal violet staining based Boyden chamber assay relative to control; assay type: functional; conditions: Homo sapiens
HUVEC [15] = test: Inhibition of cell migration in HUVEC cells at 0.25 uM by crystal violet staining based Boyden chamber assay; assay type: functional; conditions: Homo sapiens
HUVEC [16] = test: Anti-angiogenesis activity in HUVEC cells assessed as reduction in total tube length at 2 uM incubated for 12 hrs by inverted microscopic analysis relative to control; assay type: functional, Homo sapiens; parameters: scale not given: the % may be the effect or the level left
HUVEC [17] = test: Inhibition of cell migration in HUVEC cells at 0.5 uM by crystal violet staining based Boyden chamber assay relative to control; assay type: functional; conditions: Homo sapiens
HUVEC [18] = test: Anti-angiogenesis activity in HUVEC cells assessed as appearance of shorter tubule length at 0.25 to 2 uM incubated for 12 hrs by inverted microscopic analysis; assay type: functional, cell-based; conditions: Homo sapiens, dose 0.25-2 µM
Danio rerio [19] = species: Danio rerio; test: Antiangiogenic activity against transgenic zebrafish model assessed as inhibition of inter-segmental blood vessels of embryo at 2.5 uM measured after 72 hrs post fertilization by fluorescence microscopy based analysis relative to control; assay type: functional; parameters: scale not given: the % may be the effect or the level left
HUVEC [20] = test: Inhibition of cell migration in HUVEC cells at 0.25 uM by crystal violet staining based Boyden chamber assay relative to control; assay type: functional; conditions: Homo sapiens
Danio rerio [21] = species: Danio rerio; test: Anti-angiogenesis activity in zebrafish embryo assessed as downregulation of kdr mRNA expression at 0.5 to 5 uM measured after 24 hrs by qRT-PCR analysis; assay type: functional, organism-based; conditions: dose 0.5-5 µM
Danio rerio [22] = species: Danio rerio; test: Anti-angiogenesis activity in zebrafish embryo assessed as downregulation of ang-2 mRNA expression at 0.5 to 5 uM measured after 24 hrs by qRT-PCR analysis; assay type: functional, organism-based; conditions: dose 0.5-5 µM
Danio rerio [23] = species: Danio rerio; test: Anti-angiogenesis activity in zebrafish embryo assessed as effect on […]-mRNA expression at 0.5 to 5 uM measured after 24 hrs by qRT-PCR analysis; assay type: functional, organism-based; conditions: dose 0.5-5 µM
Danio rerio [24] = species: Danio rerio; test: Anti-angiogenesis activity in zebrafish embryo assessed as downregulation of kdr1 mRNA expression at 0.5 to 5 uM measured after 24 hrs by qRT-PCR analysis; assay type: functional, organism-based; conditions: dose 0.5-5 µM
HUVEC [25] = test: (§1) Antiproliferative activity against HUVEC cells measured after 48 hrs by CCK-8 method; assay type: toxicity, cell-based; conditions: human, huvec, 48 h; dose 0.062-16 µM
[26] = as §1; assay type: toxicity, cell-based; conditions: human, HUVEC cells
HUVEC [27] = test: Inhibition of cell migration in HUVEC cells at 1 uM by crystal violet staining based Boyden chamber assay relative to control; assay type: functional; conditions: Homo sapiens
HUVEC [28] = test: Anti-angiogenesis activity in HUVEC cells assessed as reduction in total tube length at 1 uM incubated for 12 hrs by inverted microscopic analysis relative to control; assay type: functional, Homo sapiens; parameters: scale not given: the % may be the effect or the level left
HUVEC [29] = test: Inhibition of cell migration in HUVEC cells assessed as […] in wound closure area at 0.25 to 2 uM incubated for 12 hrs by crystal violet staining based wound healing assay relative to DMSO; assay type: functional; conditions: Homo sapiens, dose 0.25-2 µM

COc1cc(CCc2ccccc2Cl)cc(OC)c1O
Activity (HUVEC [1]): Active
inhibition (HUVEC [2]): Dose-Dependent Effect
Activity (Danio rerio [3]): Active
Activity (Danio rerio [4]): inactive
Activity (Danio rerio [5]): Dose-Dependent Effect
Activity (Danio rerio [6]): Active
Activity (Danio rerio [7]): inactive
inhibition (HUVEC [8]): Dose-Dependent Effect
inhibition at 2 µM (HUVEC [9]): 17.4%
Activity (Danio rerio [10]): inactive
Activity (HUVEC [11]): Active
Activity [12]: Toxic
Activity (HUVEC [13]): Active
inhibition at 2 µM (HUVEC [14]): ~78.5%
inhibition (HUVEC [15]): Active
Activity (HUVEC [16]): 22.6%
inhibition at 0.5 µM (HUVEC [17]): ~64.4%
Activity (HUVEC [18]): Active
Activity (Danio rerio [19]): 100%
inhibition at 0.25 µM (HUVEC [20]): ~37.2%
Activity (Danio rerio [21]): Active
Activity (Danio rerio [22]): Active
Activity (Danio rerio [23]): inactive
Activity (Danio rerio [24]): Active
Activity (HUVEC [25]): Dose-Dependent Effect
IC50 at 48 h [26]: 1700 nM
inhibition at 1 µM (HUVEC [27]): ~71.3%
Activity (HUVEC [28]): 38.7%
inhibition (HUVEC [29]): Active
